Data as given in US20100093811A1 (priority 2007, published 2010).
Where a name gives a salt, the structure may show the parent alone. Read-outs that look alike come from different tables or passages of the source.

Columns and labels:
[1] = test system: acute HIV infection of T-lymphoid cells; assay: Assay for inhibition of HIV replication (spread assay); assay type: cell-based, HIV-1
Description: • Assay for Inhibition of HIV Replication
Assays for the inhibition of acute HIV infection of T-lymphoid cells were conducted in accordance with Vacca, J. P. et al., Proc. Natl. Acad. Sci. USA 1994, 91: 4096.

wild-type HIV-1 protease = wild-type HIV-1 protease (Human immunodeficiency virus type 1 group M subtype B, UniProt P04585); assay: Assay for inhibition of microbial expressed HIV protease; assay type: biochemical
Description: Assay for Inhibition of Microbial Expressed HIV Protease
Inhibition studies of the reaction of the protease (which was expressed in Eschericia coli) with a peptide substrate [Val-Ser-Gln-Asn-(betanapthyl)Ala-Pro-Ile-Val]. The inhibitor is first preincubated with the enzyme in assay buffer (50 mM sodium acetate, pH 5.5, 100 mM NaCl, and 0.1% BSA) for 30 minutes at room temperature. Substrate is added to 440 micromolar in a total volume of 80 microliters containing 5 picomolar HIV-1 protease, and the reaction is incubated for 1 hour at 30° C. The reaction is quenched by addition of 120 microliters of 10% phosphoric acid, and product formation is determined after separation of product and substrate on a Vydac C18 column connected to an Alliance high performance liquid chromatography system (Waters Corporation). The extent of inhibition of the reaction is determined from the peak area of the products.

[2] = wild-type HIV-1 protease expressed in E. coli, peptide substrate, pH 5.5, read-out: Enzyme Inhibition - IC50
[3] = Human immunodeficiency virus 1, T-lymphoid, read-out: Spread - IC95

Row | Compound | IC95 ([1]; Human immunodeficiency virus 1, T-lymphoid, read-out: Spread - IC95 (nM)) | IC50 (wild-type HIV-1 protease; [2]) | IC95 [1, 3] | IC50 (wild-type HIV-1 protease) | IC95 ([1]; inhibition of HIV-1 replication, 10% FBS, read-out: Spread - IC95)
1 | CC[C@@H](CCC[C@@H](CO)N(CCC(C)C)S(=O)(=O)c1ccc(N)cc1)NC(=O)[C@@H](NC(=O)OC)C(c1ccccc1)c1ccccc1 [Example D2] | 10 nM | 0.016 nM | – | – | –
2 | CCCN([C@H](CO)CCC[C@H](CC)NC(=O)[C@@H](N)C(c1ccccc1)c1ccccc1)S(=O)(=O)c1ccc(CO)cc1 [Example J39, N-{(1S,5S)-1-ethyl-6-hydroxy-5-[{[4-(hydroxymethyl)phenyl]sulfonyl}(propyl)amino]hexyl}-β-phenyl-L-phenylalaninamide] | – | 0.016 nM | 39 nM | – | –
3 | COC(=O)N[C@@H](Cc1ccccc1Cl)C(=O)N[C@H](CCC[C@@H](CO)N(CCC(C)C)S(=O)(=O)c1ccc([C@H](C)O)cc1)C1CC1 [Example J15, 2-chloro-N-{(1R,5S)-1-cyclopropyl-6-hydroxy-5-[({4-[(1S)-1-hydroxyethyl]phenyl}sulfonyl)(3-methylbutyl)amino]hexyl}-Nα-(methoxycarbonyl)-L-pbenylalaninamide] | – | 0.372 nM | 42 nM | – | –
4 | CCCN([C@H](CO)CCC[C@@H](NC(=O)[C@@H](NC(=O)OC)C(c1ccccc1)c1ccccc1)C1CC1)S(=O)(=O)c1ccc(N)cc1 [Example I7, N-{(1R,5S)-5-[[(4-aminophenyl)sulfonyl](propyl)amino]-1-cyclopropyl-6-hydroxyhexyl}-Nα-(methoxycarbonyl)-β-phenyl-L-phenylalaninamide] | – | 0.206 nM | 43 nM | – | –
5 | COC(=O)N[C@H](C(=O)N[C@H](CCC[C@@H](CO)N(CCC(C)C)S(=O)(=O)c1ccc(CO)cc1)C(F)(F)F)C(c1ccccc1)c1ccccc1 [Example J2, N-[(1R,55S)-6-hydroxy-5-[{[4-(hydroxymethyl)phenyl]sulfonyl}(3-methylbutyl)amino]-1-(trifluoromethyl)hexyl]-Nα-(methoxycarbonyl)-β-phenyl-L-phenylalaninamide] | – | 0.012 nM | 8 nM | – | –
6 | COC(=O)N[C@@H](Cc1ccccc1Cl)C(=O)N[C@H](CCC[C@@H](CO)N(CCC(C)C)S(=O)(=O)c1ccc(CO)cc1)C1CC1 [Example J14, 2-chloro-N-{(1R,5S)-1-cyclopropyl-6-hydroxy-5-[{[4-(hydroxymethyl)phenyl]sulfonyl}(3-methylbutyl)amino]hexyl}-Nα-(methoxycarbonyl)-L-phenylalaninamide] | – | 0.183 nM | 63 nM | – | –
7 | CN[C@H](C(=O)N[C@H](CCC[C@@H](CO)N(CC(C)C)S(=O)(=O)c1ccc(CO)cc1)C1CC1)C(c1ccccc1)c1ccccc1 [Example J25, N-{(1R,55)-1-cyclopropyl-6-hydroxy-5-[{[4-(hydroxymethyl)phenyl]sulfonyl}(isobutyl)amino]hexyl}-Nα-methyl-β-phenyl-L-phenylalaninamide] | – | 0.08 nM | 17 nM | – | –
8 | CC[C@@H](CCC[C@@H](CO)N(CCC(C)C)S(=O)(=O)c1ccc(N)c(F)c1)NC(=O)[C@@H](NC(=O)OC)C(c1ccccc1)c1ccccc1 [Example D3, N-{(1S,5S)-5-[[(4-amino-3-fluorophenyl)sulfonyl](3-methylbutyl)amino]-1-ethyl-6-hydroxyhexyl}-Nα-(methoxycarbonyl)-b-phenyl-L-phenylalaninamide] | – | 0.054 nM | 12 nM | – | –
9 | CC[C@@H](CCC[C@@H](CO)N(CCC(C)C)S(=O)(=O)c1ccc(N)cc1)NC(=O)[C@@H](N)C(c1ccccc1)c1ccccc1 [Example F13, N-{(1S,5S)-5-[[(4-aminophenyl)sulfonyl](3-methylbutyl)amino]-1-ethyl-6-hydroxyhexyl}-β-phenyl-L-phenylalaninamide] | – | 0.01 nM | 15 nM | – | –
10 | COC(=O)N[C@H](C(=O)N[C@H](CCC[C@@H](CO)N(CCC(C)C)S(=O)(=O)c1ccc(N)c(F)c1)C1CC1)C(c1ccccc1)c1ccccc1 [Example E3, N-{(1R,5S)-5-[[(4-amino-3-fluorophenyl)sulfonyl](3-methylbutyl)amino]-1-cyclopropyl-6-hydroxyhexyl}-Nα-(methoxycarbonyl)-β-phenyl-L-phenylalaninamide] | – | 0.057 nM | 11 nM | – | –
11 | COC(=O)N[C@H](C(=O)N[C@@H](C)CCC[C@@H](CO)N(CCC(C)C)S(=O)(=O)c1ccc2ncsc2c1)C(c1ccccc1)c1ccccc1 [Example D5, N-{(1S,5S)-5-[(1,3-benzothiazol-6-ylsulfonyl)(3-methylbutyl)amino]-6-hydroxy-1-methylhexyl}-Nα-(methoxycarbonyl)-β-phenyl-L-phenylalaninamide] | – | 0.042 nM | 9 nM | – | –
12 | CN[C@H](C(=O)N[C@H](CCC[C@@H](CO)N(CCC(C)C)S(=O)(=O)c1ccc(CO)cc1)C(C)C)C(c1ccccc1)c1ccccc1 [Example J29, N-{(1R,5S)-6-hydroxy-5-[{[4-(hydroxymethyl)phenyl]sulfonyl}(3-methylbutyl)amino]-1-isopropylhexyl}-Nα-methyl-β-phenyl-L-phenylalaninamide] | – | 0.039 nM | 16 nM | – | –
13 | CC[C@@H](CCC[C@@H](CO)N(CCC(C)C)S(=O)(=O)c1ccc(CO)cc1)NC(=O)[C@@H](NC(=O)OC)C(c1ccccc1)c1ccccc1 [Example J1, N-{(1S,5S)-1-ethyl-6-hydroxy-5-[{[4-(hydroxymethyl)phenyl]sulfonyl}(3-methylbutyl)amino]hexyl}-Nα-(methoxycarbonyl)-β-phenyl-L-phenylalaninamide] | – | 0.015 nM | 9 nM | – | –
14 | CC(C)CCN([C@H](CO)CCC[C@@H](NC(=O)[C@@H](N)C(c1ccc(F)cc1)c1ccc(F)cc1)C1CC1)S(=O)(=O)c1ccc(CO)cc1 [Example J17, N-{(1R,5S)-1-cyclopropyl-6-hydroxy-5-[{[4-(hydroxymethyl)phenyl]sulfonyl}(3-methylbutyl)amino]hexyl}-4-fluoro-β-(4-fluorophenyl)-L-phenylalaninamide hydrochloride] | – | – | 6 nM | 0.01 nM | –
15 | COC(=O)NC(C(=O)N[C@@H](C)CCC[C@@H](CO)N(C(C)C)S(=O)(=O)c1ccc(CO)cc1)C(c1cccc(F)c1)c1cccc(F)c1 (stereo partly drawn) [Example J46, 3-fluoro-β-(3-fluorophenyl)-N-{(1S,5S)-6-hydroxy-5-[{[4-(hydroxymethyl)phenyl]sulfonyl}(isopropyl)amino]-1-methylhexyl}-Nα-(methoxycarbonyl)phenylalaninamide] | – | 0.01 nM | 18 nM | – | –
16 | COC(=O)N[C@@H](Cc1ccccc1Cl)C(=O)N[C@H](CCC[C@@H](CO)N(CCC(C)C)S(=O)(=O)c1ccc2ncsc2c1)C1CC1 [Example E8, N-{(1R,5S)-5-[(1,3-benzothiazol-6-ylsulfonyl)(3-methylbutyl)amino]-1-cyclopropyl-6-hydroxyhexyl}-2-chloro-Nα-(methoxycarbonyl)-L-phenylalaninamide] | – | 1.4 nM | 195 nM | – | –
17 | CCN([C@H](CO)CCC[C@H](C)NC(=O)[C@H](Cc1ccccc1Cl)NC(=O)OC)S(=O)(=O)c1ccc(CO)cc1 [Example G9, 2-chloro-N-[(1S,5S)-5-(ethyl{[4-(hydroxymethyl)phenyl]sulfonyl}amino)-6-hydroxy-1-methylhexyl]-Nα-(methoxycarbonyl)-L-phenylalaninamide] | – | 0.629 nM | 102 nM | – | –
18 | COC(=O)N[C@H](C(=O)N[C@@H](C)CCC[C@@H](CO)N(CCC(C)C)S(=O)(=O)c1ccc(N)c(F)c1)C(c1ccccc1)c1ccccc1 [Example D12, N-{(1S,5S)-5-[[(4-amino-3-fluorophenyl)sulfonyl](3-methylbutyl)amino]-6-hydroxy-1-methylhexyl}-Nα-(methoxycarbonyl)-β-phenyl-L-phenylalaninamide] | – | 0.012 nM | 6 nM | – | –
19 | COC(=O)N[C@@H](Cc1ccccc1Br)C(=O)N[C@@H](C)CCC[C@@H](CO)N(C(C)C)S(=O)(=O)c1ccc(CO)cc1 [Example G13, 2-bromo-N-{(1S,5S)-6-hydroxy-5-[{[4-(hydroxymethyl)phenyl]sulfonyl}(isopropyl)amino]-1-methylhexyl}-Nα-(methoxycarbonyl)-L-phenylalaninamide] | – | 0.291 nM | 71 nM | – | –
20 | COC(=O)N[C@H](C(=O)N[C@H](CCC[C@@H](CO)N(C(C)C)S(=O)(=O)c1ccc(N)cc1)C(F)(F)F)C(c1ccccc1)c1ccccc1 [Example H3, N-[(1R,55)-5-[[(4-aminophenyl)sulfonyl](isopropyl)amino]-6-hydroxy-1-(trifluoromethyl)hexyl]-Nα-(methoxycarbonyl)-β-phenyl-L-phenylalaninamide] | – | 0.076 nM | – | – | 18 nM
21 | COC(=O)N[C@H](C(=O)N[C@H](CCC[C@@H](CO)N(CCC(C)C)S(=O)(=O)c1ccc(CO)cc1)C1CC1)C(c1ccccc1)c1ccccc1 [Example J8, N-{(1R,5S)-1-cyclopropyl-6-hydroxy-5-[{[4-(hydroxymethyl)phenyl]sulfonyl}(3-methylbutyl)amino]hexyl}-Nα-(methoxycarbonyl)-β-phenyl-L-phenylalaninamide] | – | 0.015 nM | 10 nM | – | –
22 | COC(=O)N[C@H](C(=O)N[C@@H](C)CCC[C@@H](CO)N(C(C)C)S(=O)(=O)c1ccc(N)cc1)C(c1ccccc1)c1ccccc1 [Example F1, N-{(1S,5S)-5-[[(4-aminophenyl)sulfonyl](isopropyl)amino]-6-hydroxy-1-methylhexyl}-Nα-(methoxycarbonyl)-β-phenyl-L-phenylalaninamide] | – | – | 32 nM | – | –
